Results taken from paper PMC7926980, “The Antiproliferative and Apoptotic Effect of a Novel Synthesized S-Triazine Dipeptide Series, and Toxicity Screening in Zebrafish Embryos” (Molecules, 2021).

Assays:
HEK-293 cells = experiment: MTT cell viability assay, non-tumorigenic HEK-293; type: cell-based; details: Homo sapiens, HEK293, 72 h, non-tumorigenic cell line
Method: Additional assays were run with 3a, the most promising compound. Its toxicity was evaluated using HEK-293 (normal human embryonic kidney), which is a non-tumorigenic cell line.
In order to calculate the relative IC50 values, the antiproliferative effect of compounds 3a–o was tested in three cancer cell lines (MCF-7, MDA-MB-231, HCT-116) and normal epithelial embryonic kidney cells (HEK-293) using the MTT viability assay. The cells were seeded in 96-well plates at a density of 10 × 10^3 cells/mL, in a total volume of 200 µL per well. In total, 0.1% DMSO was used as a vehicle control. After 24 h, the cells were treated with 2 µL of the test compound, which had been pre-prepared as a stock solution to furnish the concentration range of the study (0.01–100 µM), and re-incubated for 72 h. The culture medium was then removed, and the cells were washed with phosphate-buffered saline (PBS), and 100 µL MTT was added (for a final concentration of 5 mg/mL MTT). The cells were incubated for 4 h in darkness at 37 °C. Next, 200 µL DMSO was added to each well, and the cells were maintained at room temperature in darkness for 20 min. The absorbance was detected with a microplate reader at 570 nm. The results were expressed as a percentage of viability relative to the vehicle control (100%). […]

MDA-MB-231 cells = experiment: MTT cell viability assay, MDA-MB-231; type: cell-based; details: Homo sapiens, 72 h treatment
Method: The antiproliferative activity of the synthesized compounds was evaluated by the 3-(4,5-dimethylthiazol-2-yl)-2,5-diphenyl tetrazolium bromide (MTT) cell viability assay. Two types of breast cancer cell lines—namely MCF-7, which has estrogen and progesterone receptors, and MDA-MB-231, which is triple negative—were used, in addition to a colon cancer cell line (HCT-116).
The target products 3a–o were evaluated for their antiproliferative activity using the MTT viability assay of the MCF-7, MDA-MB-231 and HCT-116 cell lines (in triplicate) on at least three independent occasions for the determination of the reported mean values.
The three human tumor cell lines MCF-7, MDA-MB-231 and HCT-116 were cultured in Dulbecco’s Modified Eagle’s Medium (DMEM) with 10% fetal bovine serum, 2 mM L-glutamine and 100 µg/mL penicillin/streptomycin. The cells were maintained at 37 °C in 5% CO2 in a humidified incubator. All of the cells were sub-cultured 3 times/week by trypsinization using TrypLE Express (1×).
In order to calculate the relative IC50 values, the antiproliferative effect of compounds 3a–o was tested in three cancer cell lines (MCF-7, MDA-MB-231, HCT-116) and normal epithelial embryonic kidney cells (HEK-293) using the MTT viability assay. The cells were seeded in 96-well plates at a density of 10 × 10^3 cells/mL, in a total volume of 200 µL per well. In total, 0.1% DMSO was used as a vehicle control. […] The culture medium was then removed, and the cells were washed with phosphate-buffered saline (PBS), and 100 µL MTT was added (for a final concentration of 5 mg/mL MTT). The cells were incubated for 4 h in darkness at 37 °C. Next, 200 µL DMSO was added to each well, and the cells were maintained at room temperature in darkness for 20 min. The absorbance was detected with a microplate reader at 570 nm. The results were expressed as a percentage of viability relative to the vehicle control (100%). The dose-response curves were plotted, and the IC50 values were obtained using Prism software (GraphPad Software, Inc., La Jolla, CA, USA). All of the experiments were repeated in three independent experiments.

zebrafish embryos = experiment: Zebrafish embryo imaging (morphology, teratogenicity); type: in vivo; details: 1 mM, embryos at 48 hpf, versus untreated embryos
From the text: The treated embryos had cardiac edema, craniofacial defects, tail lesions, and a delay in embryonic development. These observations are consistent with the findings in the literature.
A Zeiss Observer D1 inverted microscope using Zeiss ZEN software was used to capture the images of the live zebrafish embryos.
Figure 6 Representative images of the zebrafish embryos 48 hpf (A) control or (B) treated.

MCF-7 cells = experiment: Cell cycle analysis by PI staining flow cytometry; type: cell-based, human; details: 2 µM, 48 h
Method: The mechanism underlying the growth-inhibitory effect of 3a was further examined. The effect of 3a on cell cycle events in MCF-7 cells, after incubation at 2 µM for 48 h, was analyzed by a DNA flow cytometry assay of propidium iodide (PI) staining (Figure 4A). Compound 3a induced a statistically significant arrest of MCF-7 cells in the G2/M stage (36.8%) compared to the untreated cell line (11.5%) (Figure 4B).
The MCF-7 cells were treated with compound 3a (2 µM) and incubated for 48 h. After trypsinization, the cells were collected and centrifuged at 800× g for 15 min. They were then fixed in ice-cold 70% ethanol overnight at −20 °C. The fixed cells were centrifuged at 800× g for 15 min and stained with 50 μg/mL PI, containing 50 μg/mL DNase-free RNase A, at 37 °C for 30 min. The DNA content of the cells (10,000 cells) was analyzed by flow cytometer at 488 nm, using a FACSCalibur flow cytometer (BD Biosciences, San Jose, CA, USA).
Figure 4 (A) Effect of compound 3a on the cell cycle and apoptosis in breast cancer MCF-7 cells. The cells were treated with either a vehicle (0.1% ethanol (v/v)) or 3a (2 µM) for 48 h. The cell cycle analysis was performed on histograms of gated counts per DNA area (FL2-A). (B) Quantitative analysis of 4N (G2/M), 2N (G0G1), >2N (S) and <2N (sub-G1). The DNA content was determined with CellQuest software. […]

Structure (SMILES): COC(=O)CNC(=O)CNc1nc(Nc2ccccc2)nc(N2CCOCC2)n1 [Compound 3a, Methyl (4-morpholino-6-(phenylamino)-1,3,5-triazin-2-yl) glycylglycinate]
- IC50 (HEK-293 cells): > 50 µM
- IC50 (MDA-MB-231 cells): 9.36 ± 1.15 µM
- embryonic abnormality or morphological difference in zebrafish embryo images (zebrafish embryos): did not indicate any embryonic abnormality or morphological difference
- cells in the sub-G1 phase (MCF-7 cells; control 3.7%): 17.3%
- MCF-7 cells in the G2/M stage (MCF-7 cells; untreated 11.5%): 36.8%
